Data on one molecule can be found in the NIST ThermoML archive (doi:10.1021/je2005209).

The conditions of this data set: 351.55 K; Liquid; Ebulliometric method (Recirculating still).

± gives the expanded uncertainty stated by the source.

What is called vapor or sublimation pressure is the pressure of vapour in equilibrium with the condensed phase. Regarding `CCO` [ethanol], the “vapor or sublimation pressure” value is 101.32 ± 1.1 kPa.
